From article PMC6054458 (Molecular cancer therapeutics, 2017)

Target: MDM2 (Homo sapiens, UniProt Q00987)
Assay: ITC
Type: binding

Sequence of MDM2 (Q00987 428-491 limits assumed): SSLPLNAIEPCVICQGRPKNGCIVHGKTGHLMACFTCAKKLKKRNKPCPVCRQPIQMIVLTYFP

`O=C(CCl)Nc1cc(O)c2c(c1)C(=O)c1cccc(O)c1C2=O` [AQ-101] gave a Kd of 370 nM.
